# Tests used:
# [1] = system: TNFα; assay: Human PBMC LPS TNFα assay; assay type: cell-based; settings: hPBMC, LPS stimulation, read-out: IRAK4 hPBMC LPS TNF-α inhibition: Average external-IC50
# Method: Human PBMC LPS TNFα assay. Frozen PBMCs were thawed into RPMI with 10% FBS/1% penicillin/streptomycin and same day plated into 96 well plates at 200,000 PBMC/[…] media per well. Compound plates were prepared in DMSO with D300 cassette as 8-point dose curves in duplicate, starting dose 2 μM, 5-fold. Compounds are added 200 nL into cells for final 200 μL per well. Compound and cells were incubated at 37° C., 5% CO2 for 20 hours. After twenty hours of pretreatment with the compounds, LPS (01 1 1:B4) (Sigma #L2637) was added at 100 ng/ml final concentration and PBMCs incubated an additional five hours at 37° C., 5% CO2. Following assay completion, PBMC plates were spun down at 2000 rpm for 10 minutes. 100 uL of supernatant was carefully removed and placed into a new 96 well Costar (#3879) plate and stored at −80° C. until further analysis. Meso scale Discovery (MSD) human V-plex assays were used to measure cytokine levels. On day of cytokine analysis, supernatant samples were thawed, diluted with V-plex diluent #2, and directly to MSD plates. Assay was further completed per standard manufacturer's protocol. Cytokine data was normalized to LPS stimulated and unstimulated controls. Prism Graphpad was used to generate IC50 using 4 parameter logistic regression curve, free-fit.
# [2] = target: T1, IRAK4 (Homo sapiens (Human), UniProt Q9NWZ3); assay: IRAK4 MSD degradation in OCI-LY10; assay type: cell-based; settings: MSD
# Outline: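 OCI-LY10 cells treated with 8-point 1:3 dilutions (top 1 to 10 μM final) for 4 to 24 h at 37° C. Lysate IRAK4 measured by MSD sandwich immunoassay (2H9 capture, Y279 detection, SULFO-TAG anti-rabbit). DC50 from three-parameter logistic fit.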
# [3] = target: T1, IRAK4; assay: IRAK4 degradation in human whole blood monocyte - flow cytometry; assay type: cell-based; settings: read-out: IRAK4 degradation in whole blood monocyte-Flow cytometry: Average external Abs IC50
# Outline: (§1)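 Fresh heparinized human whole blood dosed (10-point, 5-fold, 0.1% DMSO) for 20 h or 4 h at 37 °C, then fixed, stained and IRAK4 MFI quantified by flow in CD14+ monocytes and CD14− lymphocytes. DC50 and Dmax via 4-parameter logistic fit normalized to DMSO and 10 μM control.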
# [4] = target: T1, IRAK4; assay: IRAK4 degradation in human whole blood lymphocyte - flow cytometry; assay type: cell-based; settings: read-out: IRAK4 degradation in whole blood lymphocyte-Flow cytometry: Average external Abs IC50
# Outline: as §1
# [5] = system: OCI-LY10; assay: CTG Cell Viability Assay - OCI-LY10; assay type: cell-based, human; settings: Homo sapiens, OCI-Ly10, 96 h, OCI-LY10, 4 days; read-out: CTG Cell Viability Assay - OCI-LY10: Average external-IC50
# Outline: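 OCI-LY10 cells exposed to 9-dose, 1:3 dilutions from 10 μM top (0.2% DMSO) for 4 days at 37° C, 5% CO2. Viability by CellTiter-Glo luminescence; IC50 from three-parameter logistic fit.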
# [6] = system: TNFα; assay: Human whole blood LPS TNFα assay; assay type: cell-based; settings: 20 h pretreatment, LPS 5 h, read-out: IRAK4 human whole blood LPS TNFa inhibition: Average external-IC50
# Method: Human Whole blood LPS TNFα assay. Whole blood was collected fresh and plated same day into 96 well plates at 180 μL per well. Compound plates were prepared in DMSO as 8-point dose curves in duplicate, starting dose 2 μM, 5-fold. Compounds are added 20 μL into blood for final 200 μL per well. Compound and cells were incubated at 37° C., 5% CO2 for 20 hours. After twenty hours of pretreatment with the compounds, LPS (01 1 1:B4) (Sigma #L2637) was added at 100 ng/ml final concentration and blood incubated an additional five hours at 37° C., 5% CO2. Following assay completion, whole blood plates were spun down at 2000 rpm for 15 minutes at 4° C. 50 μL of plasma was carefully removed and placed into a new 96 well Costar (#3879) plate and stored at −80° C. until further analysis. Meso scale Discovery (MSD) human V-plex assays were used to measure cytokine levels. On day of cytokine analysis, plasma samples were thawed, diluted with V-plex diluent #2, and directly to MSD plates. Assay was further completed per standard manufacturer's protocol. Cytokine data was normalized to LPS stimulated and unstimulated controls. Prism Graphpad was used to generate IC50 using 4 parameter logistic regression curve, free-fit.
# [7] = OCI-LY10, 4 hrs, read-out: IRAK4 MSD degradation in OCI-LY10 at 4 hrs: Average external-Abs DC50
# T1 sequence (Q9NWZ3 whole entry): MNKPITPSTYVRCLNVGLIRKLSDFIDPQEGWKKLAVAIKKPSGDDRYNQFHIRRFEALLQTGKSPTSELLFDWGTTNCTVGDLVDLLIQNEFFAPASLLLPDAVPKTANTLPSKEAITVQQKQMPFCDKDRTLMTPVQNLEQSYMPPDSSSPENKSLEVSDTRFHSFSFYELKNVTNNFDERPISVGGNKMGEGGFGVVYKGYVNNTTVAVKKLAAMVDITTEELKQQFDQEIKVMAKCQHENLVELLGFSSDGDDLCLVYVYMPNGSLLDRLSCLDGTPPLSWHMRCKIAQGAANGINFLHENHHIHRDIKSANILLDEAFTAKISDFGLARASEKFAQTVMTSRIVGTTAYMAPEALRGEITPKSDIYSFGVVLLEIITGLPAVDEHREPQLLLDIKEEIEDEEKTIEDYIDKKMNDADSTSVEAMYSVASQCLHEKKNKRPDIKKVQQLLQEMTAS
Structure (SMILES),IC50 [1] [nM],"DC50 [2, 7] [nM]",IC50 [3] [nM],DC50 [4] [nM],IC50 [5] [nM],IC50 [6] [nM],"DC50 ([2]; OCI-LY10, 24 hrs, read-out: IRAK4 MSD degradation in OCI-LY10 at 24 hrs: Average external-Abs DC50) [nM]",DC50 [3] [nM]
Cn1c(=O)n(C2CCC(=O)NC2=O)c2cccc(CCCN3CCO[C@H](CNC[C@H]4CC[C@H](n5cc(NC(=O)c6coc(-c7ccnc(NCC8CC8)c7)n6)c(C(F)F)n5)CC4)C3)c21 (stereo partly shown) [I-37],< 50,10 to 100,< 50,< 50,< 50,100 to 500,,
CN(CCCOCCCc1ccc2c(c1)n(C)c(=O)n2C1CCC(=O)NC1=O)C[C@H]1CC[C@H](n2cc(NC(=O)c3coc(-c4ccnc(NCC5CC5)c4)n3)c(C(F)F)n2)CC1 (stereo partly shown) [I-62],100 to 500,< 10,< 50,< 50,50 to 100,> 1000,,
Cn1c(=O)n(C2CCC(=O)NC2=O)c2cccc(CCCOCCN3CCN(C[C@H]4CC[C@H](n5cc(NC(=O)c6coc(-c7ccnc(NCC8CC8)c7)n6)c(C(F)F)n5)CC4)CC3)c21 (stereo partly shown) [I-58],100 to 500,< 10,< 50,50 to 100,50 to 100,> 1000,,
CN(C[C@@H]1CN(CCCc2ccc3c(c2)n(C)c(=O)n3C2CCC(=O)NC2=O)CCO1)C[C@H]1CC[C@H](n2cc(NC(=O)c3coc(-c4ccnc(NCC5CC5)c4)n3)c(C(F)F)n2)CC1 (stereo partly shown) [I-36],100 to 500,10 to 100,< 50,< 50,500 to 1000,100 to 500,,
O=C1CCC(n2c3ccc(CCCOCCOCCNCC4CCC(n5cc(NC(=O)c6coc(-c7ccnc(NCC8CC8)c7)n6)c(C(F)F)n5)CC4)cc3c3cccnc32)C(=O)N1 (stereo not shown) [I-47],100 to 500,10 to 100,,100 to 500,100 to 500,> 1000,10 to 100,500 to 1000
